Assay [1] addresses Avi-humanTEAD4 217-434 / Cy5 labeled humanYAP 60-100 (Homo sapiens (Human), UniProt Q15561). The assay is described as follows: TR-FRET YAP-TEAD4 in-vitro biochemical assay. The class given is binding. The following applies: 1 nM Avi-humanTEAD4 217-434, 20 nM Cy5-humanYAP 60-100, 1 h room temperature.
The test system of assay [2] is NCI-H2052 Tet-On shYAP_2371 pLenti6 MCAT_Luc cells (YAP-dependent transcription). Nature of the assay: YAP reporter gene activity assay (MCAT-luciferase), NCI-H2052. The note with it: Homo sapiens, NCI-H2052, 24 h, 24 hours incubation, BrightGlo luminescence. The class given is cell-based. The essentials:
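Luminescence was read 5 min after BrightGlo, following 24 h at 37 °C of compound exposure (eleven 2-fold dilutions, DMSO normalized to 0.1%). Cells were NCI-H2052 with a YAP-responsive MCAT-luciferase and a Tet-inducible shRNA against YAP1 3′UTR. Cell-free background was removed, values were normalized to vehicle, and IC50 was fitted with four parameters.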

For assay [3], the system named is NCI-H2052 Tet-On shYAP_2371 pLenti6 MCAT_Luc cells. Nature of the assay: Proliferation assay (resazurin), NCI-H2052. It counts as cell-based. The note with it: Homo sapiens, NCI-H2052, 72 h, 72 hours incubation. The essentials:
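The NCI-H2052 line carries a Tet-inducible shRNA against the YAP1 3′UTR and an MCAT luciferase reporter. The day after seeding, it received eleven 2-fold compound dilutions at 0.1% DMSO, and viability was read by resazurin fluorescence.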

Assay [4] has as its system MKN-45/Ubc-luc cells. Nature of the assay: Proliferation assay (resazurin), MKN-45. The note with it: Homo sapiens, 72 hours incubation. The class given is cell-based.
For assay [5], the system named is MKN-45/Ubc-luc cells. The assay is described as follows: Reporter gene specificity control (Ubc-luciferase), MKN-45. The following applies: Homo sapiens, MKN-45, 24 h, read-out: Reporter gene assay MKN-45 IC50 [μM], MKN-45/Ubc-luc cells (YAP deleted, specificity control), 24 hours incubation.
Experimental: As a specificity control, MKN-45 cells were stably transduced with a Ubc-Luc reporter construct, in which constitutive expression of firefly luciferase is driven by the promoter of the ubiquitin C housekeeping gene.
Stock solutions of compounds were prepared at a concentration of 10 mM in DMSO and stored at 4° C. Where necessary to afford a full dose-response curve, the stock solutions were pre-diluted in DMSO to 1'000-fold the desired reduced start concentration. On the day after cell seeding, eleven 2-fold serial dilutions of each compound were dispensed directly into the cell assay plates using a HP 300D non-contact Digital Dispenser (TECAN, Mannedorf, Switzerland). The final concentration of DMSO was normalized to 0.1% in all wells.
The ability of compounds to inhibit YAP-dependent transcription was assessed in NCI-H2052 Tet-On shYAP_2371 pLenti6 MCAT_Luc cells, while specificity (lack of unspecific inhibition of luciferase expression of activity) was assessed in MKN-45/Ubc-luc cells. […] Following incubation for 24 hours at 37° C., compound-mediated modulation of reporter-gene activity was quantified 5 min after addition of 20 μl BrightGlo (Promega, Cat #E2620), by measuring luminescence intensity on a multi-mode plate-reader (TECAN, Männedorf, Switzerland, Integration time 100 ms). For data analysis, the assay background value determined in wells containing medium, but no cells, was subtracted from all data points. Dose-dependent compound effects were expressed as % of vehicle-treated control (luminescence signal produced by cells receiving DMSO only) and IC50s calculated using a four-parametric fit model.

Avi-humanTEAD4 217-434 / Cy5 labeled humanYAP 60-100, sequence (Q15561 217-434): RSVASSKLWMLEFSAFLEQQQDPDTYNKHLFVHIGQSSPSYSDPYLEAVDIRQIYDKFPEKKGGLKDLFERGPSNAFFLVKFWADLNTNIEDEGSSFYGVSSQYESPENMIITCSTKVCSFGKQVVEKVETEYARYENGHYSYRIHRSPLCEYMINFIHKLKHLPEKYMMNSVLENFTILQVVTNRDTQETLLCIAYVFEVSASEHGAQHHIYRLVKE

Turning to `CNC[C@]1(c2ccccc2)Oc2cc(F)c(Cl)c(-c3c(C(N)=O)ccc(OC)c3F)c2[C@@H]1COC` (atropisomer, axis not shown) [Example 146, 2-((2S,3R,4S)-5-Chloro-6-fluoro-3-(methoxymethyl)-2-((methylamino)methyl)-2-phenyl-2,3-dihydrobenzofuran-4-yl)-3-fluoro-4-methoxybenzamide], the results for the IC50 in assay [1], in assay [2] and in assay [5] were 3 nM, 25 nM and above 10 µM, respectively. Besides, the values for the GI50 in assay [3] and in assay [4] were 23 nM and above 10 µM, respectively.
Take `CNC[C@]1(c2ccccc2)Oc2cc(F)c(Cl)c(-c3c(C(N)=O)ccc(OC)c3F)c2[C@@H]1CO` (atropisomer, axis not shown) [Example 147, 2-((2S,3R,4S)-5-Chloro-6-fluoro-3-(hydroxymethyl)-2-((methylamino)methyl)-2-phenyl-2,3-dihydrobenzofuran-4-yl)-3-fluoro-4-methoxybenzamide]: the figures for the IC50 in assay [1], in assay [2] and in assay [5] were 1 nM, 11 nM and above 3.3 µM, respectively. For the same compound, the figures for the GI50 in assay [3] and in assay [4] were 5 nM and above 3.3 µM, respectively.
As for `C[C@H]1c2c(cc(F)c(Cl)c2-c2c(C(N)=O)ccc(OCC(C)(C)O)c2F)O[C@]1(CN[C@H]1CC[C@](C)(O)CC1)c1ccccc1` (atropisomer, axis not shown) [Example 148, 2-((2S,3S,4S)-5-Chloro-6-fluoro-2-((((trans)-4-hydroxy-4-methylcyclohexyl)amino)methyl)-3-methyl-2-phenyl-2,3-dihydrobenzofuran-4-yl)-3-fluoro-4-(2-hydroxy-2-methylpropoxy)benzamide], the IC50 in assay [1] is 4 nM; in assay [2], 54 nM; in assay [5], above 20 µM. Also, the values for the GI50 in assay [3] and in assay [4] were 53 nM and above 20 µM, respectively.
In the case of `NC(=O)c1ccc(OCCO)c(F)c1-c1c(Cl)c(F)cc2c1C[C@](c1ccccc1)([C@@H]1CCCN1)O2` (atropisomer, axis not shown) [Example 151, 2-((2S,4S)-5-Chloro-6-fluoro-2-phenyl-2-((S)-pyrrolidin-2-yl)-2,3-dihydrobenzofuran-4-yl)-3-fluoro-4-(2-hydroxyethoxy)benzamide], the IC50 is 2 nM in assay [1], 15 nM in assay [2] and above 10 µM in assay [5]. The values for the GI50 in assay [3] and in assay [4] were 22 nM and above 10 µM, respectively.
For `C[C@H](O)COc1ccc(C(N)=O)c(-c2c(Cl)c(F)cc3c2C[C@](c2ccccc2)([C@@H]2CCCN2)O3)c1F` (atropisomer, axis not shown) [Example 152, 2-((2S,4S)-5-Chloro-6-fluoro-2-phenyl-2-((S)-pyrrolidin-2-yl)-2,3-dihydrobenzofuran-4-yl)-3-fluoro-4-((S)-2-hydroxypropoxy)benzamide], the IC50 in assay [1] was 2 nM; in assay [2] it was 36 nM; in assay [5], above 10 µM. Moreover, the GI50 in assay [3] is 25 nM; in assay [4], above 10 µM.
In the case of `CNC(=O)c1ccc(OCCO)c(F)c1-c1c(Cl)c(F)cc2c1C[C@](c1ccccc1)([C@@H]1CCCN1)O2` (atropisomer, axis not shown) [Example 153, 2-((2S,4S)-5-Chloro-6-fluoro-2-phenyl-2-((S)-pyrrolidin-2-yl)-2,3-dihydrobenzofuran-4-yl)-3-fluoro-4-(2-hydroxyethoxy)-N-methylbenzamide], the IC50 is below 1 nM in assay [1], 24 nM in assay [2] and above 10 µM in assay [5]. The concentration for 50% growth inhibition (GI50) in assay [3] was 104 nM; in assay [4], above 10 µM.
In the case of `CNC(=O)c1ccc(OC[C@H](C)O)c(F)c1-c1c(Cl)c(F)cc2c1C[C@](c1ccccc1)([C@@H]1CCCN1)O2` (atropisomer, axis not shown) [Example 154, 2-((2S,4S)-5-Chloro-6-fluoro-2-phenyl-2-((S)-pyrrolidin-2-yl)-2,3-dihydrobenzofuran-4-yl)-3-fluoro-4-((S)-2-hydroxypropoxy)-N-methylbenzamide], the figures for the IC50 in assay [1], in assay [2] and in assay [5] were 8 nM, 77 nM and above 10 µM, respectively. In addition, the figures for the GI50 in assay [3] and in assay [4] were 59 nM and above 10 µM, respectively.
Take `CNC(=O)c1ccc(OCCO)c(F)c1-c1c(Cl)c(F)cc2c1C[C@](c1ccccc1)([C@@H]1CCCCN1)O2` (atropisomer, axis not shown) [Example 161, 2-((2S,4S)-5-Chloro-6-fluoro-2-phenyl-2-((S)-piperidin-2-yl)-2,3-dihydrobenzofuran-4-yl)-3-fluoro-4-(2-hydroxyethoxy)-N-methylbenzamide]: the IC50 was 29 nM in assay [1], 174 nM in assay [2] and above 10 µM in assay [5]. The figures for the GI50 in assay [3] and in assay [4] were 167 nM and above 10 µM, respectively.
With `NC(=O)c1ccc(OCCO)c(F)c1-c1c(Cl)c(F)cc2c1C[C@](c1ccccc1)([C@@H]1CCCN1)N2` (atropisomer, axis not shown) [Example 170, 2-((2S,4S)-5-Chloro-6-fluoro-2-phenyl-2-((S)-pyrrolidin-2-yl)indolin-4-yl)-3-fluoro-4-(2-hydroxyethoxy)benzamide], the values for the IC50 in assay [1], in assay [2] and in assay [5] were 1 nM, 12 nM and above 8 µM, respectively. Moreover, the GI50 in assay [3] was 23 nM; in assay [4], above 8 µM.
As for `COc1ccc(C(N)=O)c(-c2c(Cl)c(F)cc3c2C[C@](c2ccccc2)([C@@H]2CCCN2)N3)c1F` (atropisomer, axis not shown) [Example 171, 2-((2S,4S)-5-Chloro-6-fluoro-2-phenyl-2-((S)-pyrrolidin-2-yl)indolin-4-yl)-3-fluoro-4-methoxybenzamide], the IC50 in assay [1] worked out at 2 nM; in assay [2], 116 nM; in assay [5], 15.5 µM. For the same compound, the GI50 was found to be 73 nM in assay [3] and 13 µM in assay [4].
In the same order, the values of `CNC(=O)c1ccc(OC[C@H](C)O)c(F)c1-c1c(Cl)c(F)cc2c1C[C@](c1ccccc1)([C@@H]1CCCN1)N2` (atropisomer, axis not shown) [Example 172, 2-((2S,4S)-5-Chloro-6-fluoro-2-phenyl-2-((S)-pyrrolidin-2-yl)indolin-4-yl)-3-fluoro-4-((S)-2-hydroxypropoxy)-N-methylbenzamide] are 15 nM, 144 nM, above 20 µM, 104 nM and above 20 µM.
`CNC(=O)c1cnc(OCCO)c(F)c1-c1c(Cl)c(F)cc2c1C[C@](c1ccccc1)([C@@H]1CCCN1)N2` (atropisomer, axis not shown) [Example 173, 4-((2S,4S)-5-Chloro-6-fluoro-2-phenyl-2-((S)-pyrrolidin-2-yl)indolin-4-yl)-5-fluoro-6-(2-hydroxyethoxy)-N-methylnicotinamide]: the IC50 is 14 nM in assay [1], 187 nM in assay [2] and above 20 µM in assay [5]. Also, the GI50 is 158 nM in assay [3] and above 20 µM in assay [4].
